# Test results reported in patent US20080286349A1, “SYSTEMS, DEVICES, AND METHODS FOR PASSIVE TRANSDERMAL DELIVERY OF ACTIVE AGENTS TO A BIOLOGICAL INTERFACE” (priority 2007, published 2008).
# Counter-ions that a name gives are not always drawn.
# Assays:
# [1] = Membrane potential measurement across skin in H-shaped Franz cell; ion mobility relative to chloride; assay type: physicochemical, mouse; conditions: Cl− = 1
# Excerpt: The electric potential difference shown here is between the outside and the inside of the skin. The “+/−” notation is opposite to that shown in Equation 12. […] These values have been used to make calculations.
# [2] = Delivery of aqueous drug solutions through skin in Franz cell (amount over time, flux); conditions: for experimental Flux J: 1.0% Diclofenac
# Excerpt: An H-shaped Franz cell (FIG. 7) was used to evaluate the theory described herein. As shown, the Franz cell 28 includes a donor chamber 30a and a receiver chamber 30b. The donor chamber 30a contains an ionic active agent, which permeates through a membrane 32 to reach the receiver chamber 30b. A working electrode 34a was inserted in the donor chamber 30a, while a counter electrode 34b (i.e., reference electrode) was inserted in the receptor chamber 30b. It is possible to measure the electrical potential difference induced by the ionic diffusion/permeation and the concentration gradient thus established. […]
# [3] = Computed membrane potential and ion flux (Eq. 11 Goldman equation, Eq. 12); conditions: relative to Cl−
# Excerpt: Further, it is necessary to linearly approximate the concentration gradient or the electric potential gradient to solve equation 9. […] The potential difference across the skin has been considered for a single component system. […] Thus, a film potential can be calculated provided that the ion mobility (omega) and concentration (c) within the skin are known. The ion transport speed can then be found from the calculated film potential.
# [4] = Example 1: Procaterol HCl solutions, Franz cell at 32° C.; assay type: in vitro ADME, mouse; design: unit not given here
# Procedure: Typically, 17 ml of phosphate buffered saline (PBS, sold by Wako Pure Chemical Industries) was injected into the receptor cell, and a 10 mm stirring bar was used to agitate the solution during the test. The Franz cell was placed in an incubator (made by ESPEC, model LH-113) with the temperature set to 32° C. and the humidity set to 70%. Samples were typically extracted from the cell at predetermined times using a 200 μl Gilson Pipetman. 200 μl of PBS was then added to the cell after each sampling operation.
# For measuring the active agent (e.g., Procaterol cation) permeated, a standard solution with known concentration can be prepared and compared with the concentration measured. Using Procaterol HCl as an example, 50 mg of Procaterol HCl (97.25% anhydrous) was accurately measured out, and then added to water to form 50 ml of solution (“Procaterol concentrate liquid”). The standard concentrate was then diluted (“Procaterol standard solution”) and used as a mobile phase for high performance (or pressure) liquid chromatography (HPLC). The Procaterol concentrate liquid was sealed in a light shielding bottle and stored in a refrigerator. 10 μl of each test sample and 10 μl of the standard solution was measured using HPLC, and Procaterol peak areas At (test samples) and As (standard solution) were determined for each sample. Procaterol HCl masses were then found for each test sample using the following equation: […]
# In Example 1, before testing the delivery device 10, sixteen tests were performed at four different agent concentrations (four tests (#1, #2, #3, and #4) for each concentration of active agent) using Procaterol HCl in order to investigate the transport of Procaterol cation into and through skin along a concentration gradient. A Franz cell was used at 32° C. using hairless mouse skin as a permeable membrane. 720 corresponds to the average delivery of a 5 wt % Procaterol-HCl concentration, 722 corresponds to the average delivery of a 2.5 wt % Procaterol-HCl concentration, 724 corresponds to the average delivery of a 1 wt % Procaterol-HCl concentration, and 726 corresponds to the average delivery of a 0.5 wt % Procaterol-HCl concentration. […] It can be seen that the amount of Procaterol delivered through the skin increases over time. Further, it can also be seen that the amount of Procaterol delivered increases with increased Procaterol concentration. To deliver a medically effective amount of Procaterol through the skin, the concentration of the Procaterol solution must be equal to or greater than a certain threshold concentration. A sufficient amount of Procaterol dissolved in water was used in this experiment, thus leading to a rather large Procaterol delivery speed. It is therefore possible to deliver Procaterol through the skin, provided that the solution exists in proximity to the surface of the skin.
smiles,measurement,setting,value
"O=C([O-])Cc1ccccc1Nc1c(Cl)cccc1Cl.[Na+] [Diclofenac, monosodium 2-(2-(2,6-dichlorophenylamino)phenyl)acetate]",Mobility of ion (Diclofenac anion compared to chloride ions),[1]; 0.032 mol dm^−3 sodium Diclofenac donor,4.6
same,Flux,[2]; 0.003 M sodium Diclofenac,1.30 μg h^−1 cm^−2
same,Amount of Diclofenac delivered,"[2]; 0.003 M, time 0 hr",0.0
same,Amount of Diclofenac delivered,"[2]; 0.003 M, time 1 hr",0.0
same,Amount of Diclofenac delivered,"[2]; 0.003 M, time 3 hr",2.0
same,Amount of Diclofenac delivered,"[2]; 0.003 M, time 5 hr",5.6
same,Amount of Diclofenac delivered,"[2]; 0.003 M, time 24 hr",31.1
same,Flux,[2]; 0.016 M sodium Diclofenac,2.21 μg h^−1 cm^−2
same,Amount of Diclofenac delivered,"[2]; 0.016 M, time 0 hr",0.0
same,Amount of Diclofenac delivered,"[2]; 0.016 M, time 1 hr",0.0
same,Amount of Diclofenac delivered,"[2]; 0.016 M, time 3 hr",3.6
same,Amount of Diclofenac delivered,"[2]; 0.016 M, time 5 hr",9.8
same,Amount of Diclofenac delivered,"[2]; 0.016 M, time 24 hr",53.1
same,Flux,[2]; 0.031 M sodium Diclofenac,4.62 μg h^−1 cm^−2
same,Amount of Diclofenac delivered,"[2]; 0.031 M, time 0 hr",0.0
same,Amount of Diclofenac delivered,"[2]; 0.031 M, time 1 hr",0.3
same,Amount of Diclofenac delivered,"[2]; 0.031 M, time 3 hr",5.4
same,Amount of Diclofenac delivered,"[2]; 0.031 M, time 5 hr",12.1
same,Amount of Diclofenac delivered,"[2]; 0.031 M, time 24 hr",110.9
same,experimental Flux J,[2]; KCl conc 0 %,4.3 μg h^−1 cm^−2
same,experimental Flux J,[2]; KCl conc 0.1 %,6.2 μg h^−1 cm^−2
same,experimental Flux J,[2]; KCl conc 0.5 %,7.0 μg h^−1 cm^−2
same,Mobility ratio w,[3]; Diclofenac 0.0000016 mol cm^−3,4.6
same,Mobility ratio w,[3]; Diclofenac 0.0000032 mol cm^−3 (last line),4.6
same,Mobility ratio w,[3]; Diclofenac 0.0000032 mol cm^−3 (third line),4.6
same,Mobility ratio w,[3]; Diclofenac 0.000016 mol cm^−3,4.6
"CCC(NC(C)C)C(O)c1ccc(O)c2[nH]c(=O)ccc12 (stereo not shown) [Procaterol HCl, 8-hydroxy-5-[1-hydroxy-2-[(1-methylethyl)amino]butyl]-2(1H)-quinolinone]",Mobility of ion (Procaterol cation with respect to chloride ions),[1]; […] Procaterol HCl donor,0.13
same,Flux,[2]; 0.015 M aqueous Procaterol,0 mg h^−1 cm^−2
same,Amount of aqueous Procaterol delivered,"[2]; 0.015 M, time 0 hr",0
same,Amount of aqueous Procaterol delivered,"[2]; 0.015 M, time 2 hr",0
same,Amount of aqueous Procaterol delivered,"[2]; 0.015 M, time 3 hr",0
same,Amount of aqueous Procaterol delivered,"[2]; 0.015 M, time 5 hr",0
same,Flux,[2]; 0.03 M aqueous Procaterol,0.024 mg h^−1 cm^−2
same,Amount of aqueous Procaterol delivered,"[2]; 0.03 M, time 0 hr",0
same,Amount of aqueous Procaterol delivered,"[2]; 0.03 M, time 2 hr",0
same,Amount of aqueous Procaterol delivered,"[2]; 0.03 M, time 3 hr",0
same,Amount of aqueous Procaterol delivered,"[2]; 0.03 M, time 5 hr",0.12
same,Flux,[2]; 0.06 M aqueous Procaterol,0.082 mg h^−1 cm^−2
same,Amount of aqueous Procaterol delivered,"[2]; 0.06 M, time 0 hr",0
same,Amount of aqueous Procaterol delivered,"[2]; 0.06 M, time 2 hr",0.13
same,Amount of aqueous Procaterol delivered,"[2]; 0.06 M, time 3 hr",0.22
same,Amount of aqueous Procaterol delivered,"[2]; 0.06 M, time 5 hr",0.41
same,Flux,[2]; […] aqueous Procaterol,0.84 mg h^−1 cm^−2
same,Amount of aqueous Procaterol delivered,"[2]; […], time 0 hr",0
same,Amount of aqueous Procaterol delivered,"[2]; […], time 2 hr",1.53
same,Amount of aqueous Procaterol delivered,"[2]; […], time 3 hr",2.47
same,Amount of aqueous Procaterol delivered,"[2]; […], time 5 hr",4.20
same,Mobility ratio w,[3]; Procaterol 0.000015 mol cm^−3,0.13
same,Mobility ratio w,[3]; Procaterol 0.00003 mol cm^−3,0.13
same,Mobility ratio w,[3]; Procaterol 0.00006 mol cm^−3,0.13
same,"Total transmission amount, Ave.","[4]; Test ID 720 (5.0%), 0 hrs.",0.0
same,"Total transmission amount, single samples #1-#4","[4]; Test ID 720 (5.0%), 0 hrs.",0.0
same,"Total transmission amount, Ave.","[4]; Test ID 720 (5.0%), 1 hr.",0.7
same,"Total transmission amount, Ave.","[4]; Test ID 720 (5.0%), 3 hrs.",5.3
same,"Total transmission amount, Ave.","[4]; Test ID 720 (5.0%), 5 hrs.",10.4
same,"Total transmission amount, Ave.","[4]; Test ID 720 (5.0%), 8 hrs.",16.3
same,"Total transmission amount, Ave.","[4]; Test ID 722 (2.5%), 0 hrs.",0.0
same,"Total transmission amount, single samples #1-#4","[4]; Test ID 722 (2.5%), 0 hrs.",0.0
same,"Total transmission amount, Ave.","[4]; Test ID 722 (2.5%), 1 hr.",0.4
same,"Total transmission amount, Ave.","[4]; Test ID 722 (2.5%), 3 hrs.",1.7
same,"Total transmission amount, Ave.","[4]; Test ID 722 (2.5%), 5 hrs.",2.8
same,"Total transmission amount, Ave.","[4]; Test ID 722 (2.5%), 8 hrs.",4.1
same,"Total transmission amount, Ave.","[4]; Test ID 724 (1.0%), 0 hrs.",0.0
same,"Total transmission amount, single samples #1-#4","[4]; Test ID 724 (1.0%), 0 hrs.",0.0
same,"Total transmission amount, Ave.","[4]; Test ID 724 (1.0%), 1 hr.",0.0
same,"Total transmission amount, single samples #1-#4","[4]; Test ID 724 (1.0%), 1 hr.",0.0
same,"Total transmission amount, Ave.","[4]; Test ID 724 (1.0%), 3 hrs.",0.2
same,"Total transmission amount, Ave.","[4]; Test ID 724 (1.0%), 5 hrs.",0.4
same,"Total transmission amount, Ave.","[4]; Test ID 724 (1.0%), 8 hrs.",0.7
same,"Total transmission amount, Ave.","[4]; Test ID 726 (0.5%), 0 hrs.",0.0
same,"Total transmission amount, single samples #1-#4","[4]; Test ID 726 (0.5%), 0 hrs.",0.0
same,"Total transmission amount, Ave.","[4]; Test ID 726 (0.5%), 1 hr.",0.0
same,"Total transmission amount, single samples #1-#4","[4]; Test ID 726 (0.5%), 1 hr.",0.0
same,"Total transmission amount, Ave.","[4]; Test ID 726 (0.5%), 3 hrs.",0.2
same,"Total transmission amount, Ave.","[4]; Test ID 726 (0.5%), 5 hrs.",0.5
same,"Total transmission amount, Ave.","[4]; Test ID 726 (0.5%), 8 hrs.",0.8
"O=C1O[C@H]([C@@H](O)CO)C(O)=C1O[C@H]1O[C@H](CO)[C@@H](O)[C@H](O)[C@H]1O [AA2G, L-Ascorbic acid 2-Glucoside]",Mobility of ion (AA2G− compared to chloride ions),[1]; AA2G 300 mM (0.296 mol dm^−3 donor),0.83
same,Mobility ratio w,[3]; AA2G 0.000059 mol cm^3,0.1
same,Mobility ratio w,[3]; AA2G 0.000148 mol cm^3,0.4
